Data published in patent EP0378671B1, “INSULINOMIMETIC AND INSULIN RECEPTOR BINDING SITE PEPTIDES” (CITY OF HOPE, priority 1988, dated 1997).

System: isolated rat adipocytes
Test: Lipogenesis assay: incorporation of 3-[3H] glucose into lipids
Type: cell-based
Details: 2 hours at 37°C, compared with insulin and basal (Figure 10)
Description: The lipogenesis assay was conducted according to Smal, et al., J.Biol.Chem. 262:11071-11079 (1987). Dissected epididymal and retroperitoneal fat pads were digested under vigorous shaking at 37°C for 30 min with collagenase (1.0 mg/ml) in Krebs-Ringer-Heps (KRH) buffer, pH 7.4, 35 mg/ml dialyzed bovine serum albumin (BSA), 0.27 mM glucose. After filtration on cheesecloth and 4 washes in KRH with 10 mg/ml BSA, the adipocytes were preincubated for 4 hours at 37°C in the same buffer.
The lipogenesis assay was performed in triplicate in 6 ml polyethylene vials by adding successively 400 µl of adipocyte suspension (80 X l0^3 cells/ml), 50 µl of KRH buffer pH 7.4 (1% BSA, 0.27 mM glucose) without hormone (basal lipogenesis) or with insulin or receptor-derived peptides at the indicated concentrations, and 50 µl D-[3-^3H]-glucose in a total volume of 0.5 ml. The vials were incubated 2 hours at 37°C under gentle shaking. […]

For “insulin receptor sequence 81-91: peptide with insulin receptor sequence 81-91 (LIMITDYLLLF; UniProt P06213 81-91, looked up, fragment)”, the stimulation of lipogenesis was “totally inactive” and the stimulation of lipogenesis (listed as insulin receptor sequence 81 to 91) was “not stimulated above basal”.
